Tests used:
Type in all cases: cell-based, mouse
DCs [1] = test: Pyroptosis / cell death by LDH release; details: LPS-primed DCs
Description: In addition to promoting IL-β release, inflammasome activation has been typically associated with the induction of cell death (Aachoui, Y., (2013b). Current opinion in microbiology 16, 319-326). Without wishing to be bound by theory, cell death via non-canonical inflammasomes is believed to depend upon the enzymatic activity of caspase-11, which must cleave at least two proteins, gasdermin d and pannexin-1 (Kayagaki, N. et al., (2015) Nature 526, 666-671; Shi, J. et al., (2015) Nature 526, 660-665; Yang, D. et al., (2015) Immunity 43, 923-932). […] To assess this possibility directly, pyroptosis induction after oxPAPC administration or LPS transfection in LPS-primed DCs was measured. Pyroptosis is characterized by a rapid loss of plasma membrane integrity, which should release cytoplasmic proteins (and organelles) from the cell body. LDH release in the supernatant was used to assess membrane permeabilization of the cell population during pyroptosis. LPS/ATP-treated cells released LDH starting 4 hours after treatment (FIG. 48A); this combination was a well-defined activator of inflammasome-mediated cell death (Aachoui, Y., (2013b). Current opinion in microbiology 16, 319-326). Cells transfected with LPS, independently from LPS priming, died at later time points than cells treated with ATP (FIG. 48A).

[2] = tested on: primary bone marrow-derived MΦs; test: IL-1β release from macrophages (ELISA)
Description: (§1) C57BL/6J (Jax 000664), C57BL/6NJ (Jax 005304), CD14 KO (Jax 003726), caspase-1/-11 dKO mice (Jax 016621), TLR4-mutant (C3H/HeJ, Jax 000659), and wild-type control for TLR4-mutant (C3H/HeSNJ, Jax 000661) were purchased from Jackson Labs. NLRP3 KO and ASC KO mice were kindly provided by Dr. T. Horng, Harvard School of Public Health. Caspase-11 KO mice were kindly provided by Dr. Junying Yuan, Harvard Medical School. Caspase-1 single KO mice were kindly provided by Thirumala-Devi Kanneganti (St. Judes). DCs were differentiated from bone marrow in IMDM (Gibco), 10% B16-GM-CSF derived supernatant, 2 μM 2-mercaptoethanol and 10% FBS and used after 6 day of culture. DC purity was assessed by flow cytometry and was usually higher than 90%. […]
RNA was isolated from cell cultures using Qiashedder (Qiagen) and GeneJET RNA Purification Kit (Life Technologies). Purified RNA was analyzed for gene expression on a CFX384 real time cycler (Bio-rad) using TaqMan RNA-to-CT 1-Step Kit (Applied Biosystems) with probes purchased from Life Technologies specific for viperin (Mm00491265_m1), IFNb1 (Mm00439552_s1), IL6 (Mm00446190_m1), caspase-1 (Mm00438023_m1), caspase-11 (Mm00432307_m1), Nlrp3 (Mm00840904_m1), Asc (Mm00445747_g1), TBP (Mm00446971_m1) or GAPDH (Mm99999915_g1). ELISA for IL-1β, IL-2, IL-17, IL-18, TNFα and IFNγ were performed using Mouse Ready-SET-Go ELISA kits (eBioscience). […]

DCs [3] = test: DC viability / survival (7-AAD staining); details: up to 72 hours after treatment; ATP and oxPAPC in LPS-treated DCs
Description: It was contemplated that living cells should resist staining with Zombie dye, a stain that labels the cytosol of cells whose plasma membranes have been disrupted. Cells with intact plasma membranes should also retain functional organelles. In contrast, pyroptotic cells should have lost their organelles and should stain strongly for Zombie dye. […] Moreover, not only did oxPAPC not induce pyroptosis, this lipid counteracted the slow acting death pathways activated by LPS in DCs (Zanoni, I. et al. (2009) Nature 460, 264-268). For this experiment, the health of individual cells within the population up to 72 hours after treatment was assessed by flow cytometry, using the viability stain 7-AAD, which detected genomic DNA within cells whose membranes had been permeabilized (Paterson, A. M. et al., (2011) J Immunol 187, 1097-1105).

DCs [4] = test: TNFα secretion from DCs (ELISA); details: WT and caspase-11 KO DCs
Description: as §1, with “90%. MO were differentiated from bone marrow in DMEM (Gibco), 30% L929 supernatant, and 10% FBS. Immortal MΦs were cultured in DMEM supplemented with 10% L929 supernatant and 10% FBS. Splenic DCs were purified as described previously (Zanoni et al., 2012). Prior to stimulations, cultured cells were washed and re-plated in DMEM supplemented with 10% FBS at a concentration of 1×10^6 cells/ml in a final volume of 100 μl. For experiments using pan-caspase inhibitor, cells were treated with zVADfmk (20 μM) 30 min before inflammasome activation stimuli addition.” for “90%.”
RNA was isolated from cell cultures using Qiashedder (Qiagen) and GeneJET RNA Purification Kit (Life Technologies). Purified RNA was analyzed for gene expression on a CFX384 real time cycler (Bio-rad) using TaqMan RNA-to-CT 1-Step Kit (Applied Biosystems) with probes purchased from Life Technologies specific for viperin (Mm00491265_m1), IFNb1 (Mm00439552_s1), IL6 (Mm00446190_m1), caspase-1 (Mm00438023_m1), caspase-11 (Mm00432307_m1), Nlrp3 (Mm00840904_m1), Asc (Mm00445747_g1), TBP (Mm00446971_m1) or GAPDH (Mm99999915_g1). ELISA for IL-1β, IL-2, IL-17, IL-18, TNFα and IFNγ were performed using Mouse Ready-SET-Go ELISA kits (eBioscience). […] Cell associated cytokines were measured as follows: 96-well plates were centrifuged and supernatant was discarded. […]

LPS-pretreated DCs = test: ASC and caspase-1 containing speck formation (immunofluorescence); details: ATP 1 mM, oxPAPC 120 μM
Experimental: For live or permeability experiment, MitotTacker CMX-ROS (Life Technologies) or Zombie Red (BioLegend) dyes were used in according to manufacturer's instructions before fixation with 4% paraformaldehyde. After permeabilization step using 0.1% Triton X-100 0.2% BSA-PBS, cells were blocked in 2% BSA-PBS and incubated with rabbit anti-ASC pAb (AL177, Adipogen) and mouse anti-caspase-1 mAb (Casper-1, Adipogen) followed by Alexa Fluor 488-conjugated chicken anti-rabbit IgG (Life Technologies) and Alexa Fluor 568-conjugated goat anti-mouse IgG (Life Technologies) diluted in blocking buffer. Nuclei were counterstained with DAPI (Life Technologies) or DRAQ5 (BioLegend). A Zeiss Axiovert 200M confocal microscope or an Olympus BX41 fluorescence microscope was used to acquire images.

bone marrow derived DCs = test: IL-1β release from DCs (ELISA)
Experimental: NLRP3 KO and ASC KO mice were kindly provided by Dr. T. Horng, Harvard School of Public Health. Caspase-11 KO mice were kindly provided by Dr. Junying Yuan, Harvard Medical School. Caspase-1 single KO mice were kindly provided by Thirumala-Devi Kanneganti (St. Judes). DCs were differentiated from bone marrow in IMDM (Gibco), 10% B16-GM-CSF derived supernatant, 2 μM 2-mercaptoethanol and 10% FBS and used after 6 day of culture. […] MO were differentiated from bone marrow in DMEM (Gibco), 30% L929 supernatant, and 10% FBS. Immortal MΦs were cultured in DMEM supplemented with 10% L929 supernatant and 10% FBS. […] For experiments using pan-caspase inhibitor, cells were treated with zVADfmk (20 μM) 30 min before inflammasome activation stimuli addition. Cycloheximide (50 ng/ml) was added at the time of stimuli administration. Transfection with DOTAP was performed following the manufacturer instructions. […] 30 min later, the DOTAP/LPS or DOTAP/oxPAPC complex were added to the culture.
RNA was isolated from cell cultures using Qiashedder (Qiagen) and GeneJET RNA Purification Kit (Life Technologies). Purified RNA was analyzed for gene expression on a CFX384 real time cycler (Bio-rad) using TaqMan RNA-to-CT 1-Step Kit (Applied Biosystems) with probes purchased from Life Technologies specific for viperin (Mm00491265_m1), IFNb1 (Mm00439552_s1), IL6 (Mm00446190_m1), caspase-1 (Mm00438023_m1), caspase-11 (Mm00432307_m1), Nlrp3 (Mm00840904_m1), Asc (Mm00445747_g1), TBP (Mm00446971_m1) or GAPDH (Mm99999915_g1). ELISA for IL-1β, IL-2, IL-17, IL-18, TNFα and IFNγ were performed using Mouse Ready-SET-Go ELISA kits (eBioscience). To measure secreted cytokines, supernatant were collected, clarified by centrifugation and stored at −20° C. Cell associated cytokines were measured as follows: 96-well plates were centrifuged and supernatant was discarded. 250 μl of PBS were added to each well. Cells were frozen and thawed two times at −80° C. and then stored at −20° C. for further analysis.

DCs [5] = test: Single cell viability assay of inflammasome-containing cells (Zombie dye, active mitochondria); details: LPS-pretreated DCs
Experimental: BMDCs cells were treated with LPS (1 μg/mL) for 3 hours before inflammasome-inducing stimuli challenge. For live or permeability experiment, MitotTacker CMX-ROS (Life Technologies) or Zombie Red (BioLegend) dyes were used in according to manufacturer's instructions before fixation with 4% paraformaldehyde. After permeabilization step using 0.1% Triton X-100 0.2% BSA-PBS, cells were blocked in 2% BSA-PBS and incubated with rabbit anti-ASC pAb (AL177, Adipogen) and mouse anti-caspase-1 mAb (Casper-1, Adipogen) followed by Alexa Fluor 488-conjugated chicken anti-rabbit IgG (Life Technologies) and Alexa Fluor 568-conjugated goat anti-mouse IgG (Life Technologies) diluted in blocking buffer. Nuclei were counterstained with DAPI (Life Technologies) or DRAQ5 (BioLegend). A Zeiss Axiovert 200M confocal microscope or an Olympus BX41 fluorescence microscope was used to acquire images.

- formation of ASC and caspase-1-containing specks (LPS-pretreated DCs): induced the formation
SMILES: Nc1ncnc2c1ncn2[C@@H]1O[C@H](COP(=O)(O)OP(=O)(O)OP(=O)(O)O)[C@@H](O)[C@H]1O [ATP]
- time from which LDH was released (DCs [1]): ≥ 4 h
- IL-1β release [2]: promoted the efficient release of IL-1β
- DC viability (7-AAD) (DCs [3]): diminished DC viability
- TNFα secretion (DCs [4]): not affected
- IL-1β release (bone marrow derived DCs; BMDCs lacking caspase-1/-11 or ASC): completely lost
- IL-1β release (bone marrow derived DCs; LPS-primed DCs): elicit IL-1β release from DCs in a dose-dependent manner
- IL-1β release (bone marrow derived DCs; LPS-primed caspase-11 KO DCs): remained intact
- cell-associated IL-1β levels (bone marrow derived DCs; LPS-primed, compared with LPS alone): similar
- IL-1β release (bone marrow derived DCs; NLRP3-deficient BMDCs): NLRP3 dependent
- IL-1β release (bone marrow derived DCs; Pam3CSK-primed caspase-11 KO cells): remained intact
- mitochondria and Zombie dye staining of cells containing ASC specks (DCs [5]): lost mitochondria and stained positive for Zombie dye

From patent US12053522B2, “Pro-inflammatory and anti-cancer functions of toll-like receptor 4 antagonists” (Children's Medical Center Corporation, priority 2015, dated 2024)
